# Source: patent publication US6727232B2, “Nucleoside peptide antibiotics of AA-896” (Wyeth Holdings Corporation, priority 2001, dated 2004)
# Read-outs that look alike come from different tables or passages of the source.
# Columns and labels:
# Assay in all cases: Broth dilution MIC
# Assay type in all cases: cell-based
# E. coli GC 4559 = conditions: Escherichia coli, GC4559; E. coli GC 4559; Mueller-Hinton broth, 18 hours at 35° C.; read-out: Antimicrobial Activity (MIC)
# Description: (§1) The in vitro antibacterial activity of Example 1 through Example 20 is determined against a spectrum of Gram-positive and Gram-negative bacteria by a standard broth dilution method. Serial dilution of the compounds are made in Mueller-Hinton broth and inoculated with a bacterial suspension. The lowest concentration of compound that inhibited the growth of a bacterial strain after 18 hours of incubation at 35° C. is reported as the minimal inhibitory concentration (MIC) for that strain.
# P. rettgeri GC 4530 = conditions: Providencia rettgeri, GC4530; P. rettgeri GC 4530; Mueller-Hinton broth, 18 hours at 35° C.; read-out: Antimicrobial Activity (MIC)
# Description: as §1
# E. coli GC 2203 = conditions: Escherichia coli, GC2203; E. coli GC 2203; Mueller-Hinton broth, 18 hours at 35° C.; read-out: Antimicrobial Activity (MIC)
# Description: as §1
# S. aureus GC 2216 = conditions: Staphylococcus aureus, GC2216; S. aureus GC 2216; Mueller-Hinton broth, 18 hours at 35° C.; read-out: Antimicrobial Activity (MIC)
# Description: as §1
# S. aureus GC 4536 = conditions: Staphylococcus aureus, GC4536; S. aureus GC 4536; Mueller-Hinton broth, 18 hours at 35° C.; read-out: Antimicrobial Activity (MIC)
# Description: as §1
# E. coli GC 4560 = conditions: Escherichia coli, read-out: Antimicrobial Activity (MIC)
# Description: as §1
# S. marcescens GC 4077 = conditions: Serratia marcescens, GC4077; S. marcescens GC 4077; Mueller-Hinton broth, 18 hours at 35° C.; read-out: Antimicrobial Activity (MIC)
# Description: as §1
# E. faecalis GC 842 = conditions: Enterococcus faecalis, GC842; E. faecalis GC 842; Mueller-Hinton broth, 18 hours at 35° C.; read-out: Antimicrobial Activity (MIC)
# Description: as §1
# S. aureus GC 1131 = conditions: Staphylococcus aureus, GC1131; S. aureus GC 1131; Mueller-Hinton broth, 18 hours at 35° C.; read-out: Antimicrobial Activity (MIC)
# Description: as §1
# M. morganii GC 4531 = conditions: Morganella morganii, GC4531; M. morganii GC 4531; Mueller-Hinton broth, 18 hours at 35° C.; read-out: Antimicrobial Activity (MIC)
# Description: as §1
# P. aeruginosa GC 2214 = conditions: Pseudomonas aeruginosa, GC2214; P. aeruginosa GC 2214; Mueller-Hinton broth, 18 hours at 35° C.; read-out: Antimicrobial Activity (MIC)
# Description: as §1
# CNS GC 4537 = conditions: CNS GC 4537; Mueller-Hinton broth, 18 hours at 35° C.; read-out: Antimicrobial Activity (MIC)
# Description: as §1
# E. cloacae GC 3783 = conditions: Enterobacter cloacae, GC3783; E. cloacae GC 3783; Mueller-Hinton broth, 18 hours at 35° C.; read-out: Antimicrobial Activity (MIC)
# Description: as §1
# CNS GC 4547 = conditions: CNS GC 4547; Mueller-Hinton broth, 18 hours at 35° C.; read-out: Antimicrobial Activity (MIC)
# Description: as §1
# E. faecalis GC 2242 = conditions: Enterococcus faecalis, GC2242; E. faecalis GC 2242; Mueller-Hinton broth, 18 hours at 35° C.; read-out: Antimicrobial Activity (MIC)
# Description: as §1
# E. coli GC 3226 = conditions: Escherichia coli, GC3226; E. coli GC 3226; Mueller-Hinton broth, 18 hours at 35° C.; read-out: Antimicrobial Activity (MIC)
# Description: as §1
# E. faecalis GC 4555 = conditions: Enterococcus faecalis, GC4555; E. faecalis GC 4555; Mueller-Hinton broth, 18 hours at 35° C.; read-out: Antimicrobial Activity (MIC)
# Description: as §1
# K. pneumoniae GC 4534 = conditions: Klebsiella pneumoniae, GC4534; K. pneumoniae GC 4534; Mueller-Hinton broth, 18 hours at 35° C.; read-out: Antimicrobial Activity (MIC)
# Description: as §1
# P. aeruginosa GC 4532 = conditions: Pseudomonas aeruginosa, GC4532; P. aeruginosa GC 4532; Mueller-Hinton broth, 18 hours at 35° C.; read-out: Antimicrobial Activity (MIC)
# Description: as §1
# CNS GC 4538 = conditions: CNS GC 4538; Mueller-Hinton broth, 18 hours at 35° C.; read-out: Antimicrobial Activity (MIC)
# Description: as §1
Structure (SMILES),MIC (E. coli GC 4559) [µg/mL],MIC (P. rettgeri GC 4530) [µg/mL],MIC (E. coli GC 2203) [µg/mL],MIC (S. aureus GC 2216) [µg/mL],MIC (S. aureus GC 4536) [µg/mL],"MIC (E. coli GC 4560; GC4560, 18 h) [µg/mL]",MIC (S. marcescens GC 4077) [µg/mL],MIC (E. faecalis GC 842) [µg/mL],MIC (S. aureus GC 1131) [µg/mL],MIC (M. morganii GC 4531) [µg/mL],MIC (P. aeruginosa GC 2214) [µg/mL],MIC (CNS GC 4537) [µg/mL],MIC (E. cloacae GC 3783) [µg/mL],MIC (CNS GC 4547) [µg/mL],MIC (E. faecalis GC 2242) [µg/mL],MIC (E. coli GC 3226) [µg/mL],MIC (E. faecalis GC 4555) [µg/mL],MIC (K. pneumoniae GC 4534) [µg/mL],MIC (P. aeruginosa GC 4532) [µg/mL],MIC (CNS GC 4538) [µg/mL],also measured
"CCCCCCCCCCCCN1C(=O)C([C@@H](OC2O[C@H](CN)[C@H](O)[C@H]2OC)[C@H]2O[C@@H](n3ccc(=O)[nH]c3=O)[C@H](O)[C@@H]2O)N(CCCNC(=O)C(NC(=O)C(NC(=O)NC(C(=O)O)C(C)C)C2CCNC(=N)N2)C(O)C(C)C)C1=O (stereo partly drawn) [Example 5, 14-[5-((R)-{[(3R,4S,5R)-5-(Aminomethyl)-4-hydroxy-3-methoxytetrahydro-2-furanyl]oxy}{(2S,3S,4R,5R)-5-[2,4-dioxo-3,4-dihydro-1 (2H)-pyrimidinyl]-3,4-dihydroxytetrahydro-2-furanyl}methyl)-3-dodecyl-2,4-dioxo-1-imidazolidinyl]-9-(1-hydroxy-2-methylpropyl)-6-(2-iminohexahydro-4-pyrimidinyl)-2-isopropyl-4,7,10-trioxo-3,5,8,11-tetraazatetradecan-1-oic acid]",> 32,> 32,> 32,> 32,> 32,4,> 32,> 32,> 32,> 32,> 32,> 32,> 32,> 32,> 32,> 32,> 32,> 32,> 32,> 32,–
"COC1C(O[C@H](C2C(=O)N(c3ccc(F)cc3)C(=O)N2CCCNC(=O)C(NC(=O)C(NC(=O)NC(C(=O)O)C(C)C)C2CCNC(=N)N2)C(O)C(C)C)[C@H]2O[C@@H](n3ccc(=O)[nH]c3=O)C(O)C2O)O[C@H](CNC(=O)Nc2ccc(F)cc2)C1O (stereo partly drawn) [Example 12, 14-[5-((R)-{(2S,5R)-5-[2,4-Dioxo-3,4-dihydro-1 (2H)-pyrimidinyl]-3,4-dihydroxytetrahydro-2-furanyl}{[(5R)-4-hydroxy-3-methoxy-5-({[(4-fluoroanilino)carbonyl]amino}methyl)tetrahydro-2-furanyl]oxy}methyl)-3-(4-fluorophenyl)-2,4-dioxo-1-imidazolidinyl]-9-(1-hydroxy-2-methylpropyl)-6-(2-iminohexahydro-4-pyrimidinyl)-2-isopropyl-4,7,10-trioxo-3,5,8,11-tetraazatetradecan-1-oic Acid]",> 32,> 32,> 32,> 32,> 32,–,> 32,> 32,> 32,> 32,> 32,> 32,> 32,> 32,> 32,> 32,> 32,> 32,> 32,> 32,"MIC (E. coli GC 4560; GC4560, E. coli GC 4560, Mueller-Hinton broth, 18 hours at 35° C.): > 32 µg/mL"
"COc1ccc(N2C(=O)C([C@@H](OC3O[C@H](CN)[C@H](O)[C@H]3OC)[C@H]3O[C@@H](n4ccc(=O)[nH]c4=O)[C@H](O)[C@@H]3O)N(CCCNC(=O)C(NC(=O)C(NC(=O)NC(C(=O)O)C(C)C)C3CCNC(=N)N3)C(O)C(C)C)C2=O)cc1 (stereo partly drawn) [Example 4, 14-[5-((R)-{[(3R,4S,5R)-5-(Aminomethyl)-4-hydroxy-3-methoxytetrahydro-2-furanyl]oxy}{(2S,3S,4R,5R)-5-[2,4-dioxo-3,4-dihydro-1 (2H)-pyrimidinyl]-3,4-dihydroxytetrahydro-2-furanyl}methyl)-3-(4-methoxyphenyl)-2,4-dioxo-1-imidazolidinyl]-9-(1-hydroxy-2-methylpropyl)-6-(2-iminohexahydro-4-pyrimidinyl)-2-isopropyl-4,7,10-trioxo-3,5,8,11-tetraazatetradecan-1-oic acid]",> 32,> 32,> 32,> 32,> 32,> 32,> 32,> 32,> 32,> 32,> 32,> 32,> 32,> 32,> 32,> 32,> 32,> 32,> 32,> 32,–
